# Test results reported in US20210386367A1, “DEVICES AND SYSTEMS FOR GASTROINTESTINAL MICROBIOME DETECTION AND MANIPULATION” (Progenity, Inc., priority 2018, published 2021).
# Where two headings read alike, the source gives them in different places.
# Key:
# B. vulgatus = assay: Spontaneous mutation frequency and mutation prevention concentration (MPC); format: cell-based; conditions: B. vulgatus ATCC 8482
# Description: (§1) As used herein, “spontaneous mutation frequency” refers to the rate at which mutations arise in a bacterium that can lead to resistance to develop to an antimicrobial agent. “Mutation prevention concentration” or “MPC” refers to the lowest concentration of antimicrobial agent above which the selective proliferation of resistant mutants is expected to occur only rarely.
# Escherichia coli = assay: as above; format: cell-based; conditions: for MPC: mutant prevention concentration
# Description: as §1
# S. agalactiae = assay: as above; format: cell-based; conditions: S. agalactiae ATCC 13813
# Description: as §1
# S. pneumonia = assay: as above; format: cell-based; conditions: S. pneumoniae ATCC 49619
# Description: as §1
# S. pyogenes = assay: as above; format: cell-based; conditions: S. pyogenes ATCC 49399; mutant prevention concentration
# Description: as §1
# Prevotella spp. = assay: Agar dilution MIC, 30 clinical isolates; format: cell-based
# Bacteroides fragilis = assay: Agar dilution MIC, 30 clinical isolates; format: cell-based
# B. vulgatus ATCC 8482 = assay: Broth microdilution MIC (time-kill study); format: cell-based, Bacteroides vulgatus
# S. agalactiae ATCC 13813 = assay: Time-kill assay; format: cell-based, Streptococcus agalactiae; conditions: 2×, 4×, 8× MIC; 2, 6, 24 hr
# [1] = system: Streptococcus spp. (S. pneumoniae ATCC 49619, S. pyogenes ATCC 49399, S. agalactiae ATCC 13813); assay: Agar dilution MIC (spontaneous mutation study; strain in conditions); format: cell-based
# [2] = system: E. coli (ATCC 25922, ATCC 35218, MMX 1312); assay: Spontaneous mutation frequency assay; format: cell-based, Escherichia coli
# Protocol: (§2) Initial values of the MIC were determined by agar dilution in accordance with guidelines from the Clinical and Laboratory Standards Institute (CLSI; (1) “Methods for Dilution Antimicrobial Susceptibility Tests for Bacteria That Grow Aerobically; Approved Standard; 11th ed.,” CLSI standard M07, 2018; (2) “Methods for Antimicrobial Susceptibility Testing of Anaerobic Bacteria; Approved Standard—Eighth Edition,” CLSI document M11-A8, 2012.).
# The agar plates were prepared by mixing a ratio of 1.0 mL of concentrated drug to 49.0 mL of the appropriate molten (47° C.) agar; the drug-supplemented agar was mixed, poured into 15-by-150 mm petri dishes and allowed to solidify and dry at room temperature prior to inoculation. […] Each plate was allowed to cool at room temperature for at least 1 hr.
# The isolates were streaked onto the appropriate agar medium and incubated for 20 hr (aerobes) or 48 hr (Bacteroides under anaerobic conditions). Using a sterile swab, several well-isolated colonies were removed and resuspended in sterile saline at a heavy cell density. Each plate was inoculated with 0.5 mL of the cell suspension (each test concentration was inoculated in duplicate). The target inoculum for each spontaneous mutation plate was 10^9-10 CFU. In addition, a portion of the inoculum from each isolate was enumerated by making dilutions, spreading on agar and counting colonies.
# Once the inoculum was absorbed into the agar, the plates were incubated at 35° C. Aerobes were examined at 24 and 48 hr, and resulting colonies were counted. Bacteroides were incubated anaerobically for 48-72 hr in the anaerobe chamber and colonies were counted.
# Colony counts from plates used to enumerate the initial inoculum density and from the resulting spontaneous mutation frequency test plates were determined. The inoculum size was calculated as CFU inoculated per plate. The spontaneous mutation frequency was calculated using the counts from duplicate spontaneous mutation assay test plates as follows:
# (§3) If there were no colonies on the antibiotic selection plates, the spontaneous mutation frequency was reported as less than the frequency observed with one colony to indicate that the spontaneous mutation frequency was less than the limit of detection (one CFU). […] The mutation prevention concentration (MPC) was reported as the lowest concentration for which no mutants were selected.
# [3] = system: E. coli, Streptococcus spp., and Bacteroides spp. isolates; format: cell-based; conditions: remaining isolates (E. coli, Streptococcus spp.)
# Protocol: as §2, §3
# SIBO Bacteria = conditions: cited from earlier work
# [4] = ceftriaxone selection 4X MIC, 16 μg/mL
# [5] = ceftriaxone selection 8X MIC, 32 μg/mL
# [6] = mutant prevention concentration
# [7] = E. coli ATCC 25922, ceftriaxone selection 8X MIC, 0.5 μg/mL
# [8] = E. coli MMX 1312, ceftriaxone selection 4X MIC, 16 μg/mL
# [9] = E. coli MMX 1312, ceftriaxone selection 8X MIC, 32 μg/mL
# [10] = ceftriaxone selection 8X MIC, 0.5 μg/mL
# [11] = 30 Prevotella spp. clinical isolates
# [12] = 30 Bacteroides fragilis clinical isolates
structure (smiles),measurement,setting,value
CO/N=C(\C(=O)N[C@@H]1C(=O)N2C(C(=O)O)=C(CSc3nc(=O)c(=O)[nH]n3C)CS[C@H]12)c1csc(N)n1 [ceftriaxone],Average Count,B. vulgatus; [4],TNTC
same,Count 1,B. vulgatus; [4],TNTC
same,Count 2,B. vulgatus; [4],TNTC
same,Spontaneous Mutation Frequency,"B. vulgatus; ceftriaxone selection 4X MIC, 16 μg/mL, based on estimated count of >500 average CFU",>8.69 × 10^−8
same,Average Count,B. vulgatus; [5],0 CFU
same,Count 1,B. vulgatus; [5],0 CFU
same,Count 2,B. vulgatus; [5],0 CFU
same,Spontaneous Mutation Frequency,B. vulgatus; [5],≤1.74 × 10^−10
same,MPC,B. vulgatus; [6],32 µg/mL
same,Average Count,Escherichia coli; [7],0 CFU
same,Count 1,Escherichia coli; [7],0 CFU
same,Count 2,Escherichia coli; [7],0 CFU
same,Spontaneous Mutation Frequency,Escherichia coli; [7],≤7.41 × 10^−9
same,MPC,Escherichia coli; E. coli ATCC 25922,0.25 µg/mL
same,MPC,Escherichia coli; E. coli ATCC 35218,0.12 µg/mL
same,Average Count,Escherichia coli; [8],TNTC
same,Count 1,Escherichia coli; [8],TNTC
same,Count 2,Escherichia coli; [8],TNTC
same,Average Count,Escherichia coli; [9],TNTC
same,Count 1,Escherichia coli; [9],TNTC
same,Count 2,Escherichia coli; [9],TNTC
same,Average Count,S. agalactiae; [10],0 CFU
same,Count 1,S. agalactiae; [10],0 CFU
same,Count 2,S. agalactiae; [10],0 CFU
same,Spontaneous Mutation Frequency,S. agalactiae; [10],≤1.73 × 10^−10
same,MPC,S. agalactiae; [6],0.12 µg/mL
same,Average Count,S. pneumonia; [10],0 CFU
same,Count 1,S. pneumonia; [10],0 CFU
same,Count 2,S. pneumonia; [10],0 CFU
same,Spontaneous Mutation Frequency,S. pneumonia; [10],≤9.52 × 10^−10
same,MPC,S. pneumonia; [6],0.25 µg/mL
same,MPC,S. pyogenes,0.12 µg/mL
same,MIC range,Prevotella spp.,0.12 to 128 µg/mL
same,isolates resistant,Prevotella spp.,33%
same,isolates with intermediate resistance,Prevotella spp.,20%
same,% I,Prevotella spp.; [11],20%
same,% R,Prevotella spp.; [11],33%
same,% S,Prevotella spp.; [11],47%
same,MIC50,Prevotella spp.; [11],32 µg/mL
same,MIC90,Prevotella spp.; [11],64 µg/mL
same,MIC range,Prevotella spp.; [11],0.12 to 128 µg/mL
same,MIC50,"Prevotella spp.; Prevotella, read-out: MIC50",32 µg/mL
same,MIC90,"Prevotella spp.; Prevotella, read-out: MIC90",64 µg/mL
same,Mode,"Prevotella spp.; modal MIC, 30 Prevotella spp. clinical isolates",64 µg/mL
same,isolates resistant,Bacteroides fragilis,Thirty-three
same,isolates with intermediate resistance,Bacteroides fragilis,27%
same,% I,Bacteroides fragilis; [12],27%
same,% R,Bacteroides fragilis; [12],33%
same,% S,Bacteroides fragilis; [12],40%
same,MIC50,Bacteroides fragilis; [12],32 µg/mL
same,MIC90,Bacteroides fragilis; [12],>128 µg/mL
same,MIC range,Bacteroides fragilis; [12],8 to 128 µg/mL
same,MIC50,"Bacteroides fragilis; Bacteroides fragilis, read-out: MIC50",32 µg/mL
same,MIC90,"Bacteroides fragilis; Bacteroides fragilis, read-out: MIC90",> 128 µg/mL
same,Mode,"Bacteroides fragilis; modal MIC, 30 Bacteroides fragilis clinical isolates",16 µg/mL
same,MIC,B. vulgatus ATCC 8482; B. vulgatus ATCC 8482,2 µg/mL
same,MIC,"B. vulgatus ATCC 8482; Phocaeicola vulgatus, ATCC8482, broth microdilution, read-out: MIC",2 µg/mL
same,time-kill kinetics outcome (bactericidal = ≥3 log reduction in CFU per mL),S. agalactiae ATCC 13813,"bactericidal effect at 24 hr at 8×MIC, as did ceftriaxone (6 and 24 hr)"
same,MIC,"[1]; Streptococcus agalactiae, S. agalactiae ATCC 13813, read-out: Agar MIC",0.06 µg/mL
same,MIC,"[1]; Streptococcus pneumoniae, S. pneumoniae ATCC 49619, read-out: Agar MIC",0.06 µg/mL
same,MIC,"[1]; Streptococcus pyogenes, S. pyogenes ATCC 49399, read-out: Agar MIC",0.03 µg/mL
same,MIC,"[1]; over evaluated Streptococcus spp. (range stated jointly with other groups), read-out: MIC values (agar dilution)",0.03 to 0.06 µg/mL
same,mutation rate,[2]; E. coli MMX 1312,indeterminate
same,Spontaneous Mutation Frequency,"[2]; selection at 4× and 8× MIC, meropenem/ceftriaxone: isolates other than MMX 1312",≤ 7.41×10^−9
same,overall MPC values,[3],0.12 to 0.25 µg/mL
same,activity against SIBO organisms,SIBO Bacteria,active against SIBO organisms
